Experimental data from US20130150317A1, “COMPOUNDS FOR THE TREATMENT OF RENAL CELL CARCINOMA” (Myrovlytis Technology Ventures Limited, priority 2010, published 2013).
Read-outs that look alike come from different tables or passages of the source.

Experiments:
UOK257-FLCN^− cells [1] = assay: SRB growth inhibition assay in UOK257-FLCN^− cells; type: cell-based, human; conditions: for GI50: Homo sapiens
Excerpt: (§1) Human renal carcinoma of BHD origin cells UOK-257 (UOK-FLCN^−) and FLCN transfected UOK-257 cells UOK-FLCN^+ (Yang et al Cancer Genet Cytogenet. 2008 Jan. 15; 180(2):100-9) were provided by Dr Marston Linehan and Dr. Laura S Schmidt (Urologic Oncology Branch, Centre for Cancer Research, National Cancer Institute, National Institutes of Health, Bethesda, Md. 20892, USA). UOK-257 is the only RCC cell line that has been derived from a patient with BHD and harbours a germline FLCN frameshift mutation (c.1285dupC) (predicted, in the absence of nonsense mediated mRNA decay, to lead to premature protein truncation (p.His429ProfsX27) (Yang et al., Cancer Genet Cytogenet, 2008 Jan. 15; 180(2):100-9). We are not aware of any sporadic RCC cell lines with homozygous FLCN inactivation. FTC-133 cells were purchased from ECACC (Salisbury, United Kingdom). These cells are a non-RCC cell line derived from human thyroid carcinoma. 786-0 cells were available from the author's lab (Clifford et al., Hum Mol Genet. 2001 May 1; 10(10):1029-38). 786-O is a kidney cancer cell line that harbours an inactivating VHL gene mutation (c.311delG p.G104fs*55). All cell lines were cultured in DMEM with supplement of 10% foetal bovine serum except for FTC-133 cells which were incubated in medium with DMEM and Hens (1:1).
(§2) The sensitivity of the cell lines to drug-induced cell growth inhibition was determined using the sulphorhodamine B assay (SRB) as described by Lu et al., Clin Cancer Res. 2001:7:2114-23. Briefly, adherent exponentially growing cells were seeded into 96-well plates at 3-5×10^3 cells/100 μl/well. […] The absorbance per well was measured at 570 nm on a Victor X3 Multilabel Plate Reader (PerkinElmor, Beaconsfield, United Kingdom).
GI50 values, defined as the concentration of compounds required to inhibit growth by 50%, were then calculated. The ratio of GI50 value from UOK257-FLCN^+ and UOK257-FLCN^− were calculated and used as an indicator for the sensitivity to FLCN mutant cells.

[2] = system: FTC-133 cells with FLCN expressed at high levels; assay: SRB growth inhibition in FTC-133 cells, high FLCN expression; type: cell-based; conditions: Homo sapiens, SRB assay
Excerpt: as §1, with “786-O is a kidney cancer cell line that harbours an inactivating VHL gene mutation (c.311delG p.G104fs*55). All cell lines were cultured in DMEM with supplement of 10% foetal bovine serum except for FTC-133 cells which were incubated in medium with DMEM and Hens (1:1).” left out
(§3) The sensitivity of the cell lines to drug-induced cell growth inhibition was determined using the sulphorhodamine B assay (SRB) as described by Lu et al., Clin Cancer Res. 2001:7:2114-23. […] The absorbance per well was measured at 570 nm on a Victor X3 Multilabel Plate Reader (PerkinElmor, Beaconsfield, United Kingdom). […]

UOK257-FLCN^− cells [3] = assay: Clonogenic cell survival assay in UOK257-FLCN^− cells
Description: The final concentration of DMSO in the medium was 1%. Four dishes with two seeding densities for each drug concentration were used and at least three experiments were carried out under each set of conditions. […] The cells were incubated for an additional 10-16 days until visible colonies appeared, which were fixed with Carnoy's fixative (methanol:acetic acid 3:1, v:v), and visualized by staining cells in sulphorhodamine B (0.4%). Colonies with over 30 cells were counted. […] Cell survival following drug exposure was expressed as % control cloning efficiency or survival.

UOK257-FLCN^− cells [4] = conditions: 4×GI50 mithramycin alone
Description: At the end of the time course, media was carefully removed and cells were fixed in 85% ice-cold ethanol. After removal of ethanol, cells were incubated in the dark at 37° C. for 20 minutes in PBS buffers containing 0.1% Triton X-100, 100 mg/mL RNase A and 10 mg/mL Propidium iodide (PI). The 96-well plates were subsequently scanned using the Acumen eX3 cytometer (TTP LabTech).

[5] = system: FTC-133 cells transfected with empty vector; assay: SRB growth inhibition in FTC-133 cells, empty vector; type: cell-based, human; conditions: for GI50: Homo sapiens; for differential sensitivity in FTC-133 cells with different levels of FLCN expression (in words): SRB assay
Excerpt: as §1, §2
(§4) A FLCN containing construct was introduced into parental FTC-133 cells and stably transfected cells were selected. SRB growth inhibition assay was carried out in cells transfected with empty vector and low FLCN and high FLCN expression.
as §4

[6] = system: 786-O cells with mutant VHL; assay: SRB growth inhibition in 786-O cells with mutant VHL; type: cell-based, human
Excerpt: as §1
as §2, with “μl/well. After 20-24 h at 37° C., drugs were added at the appropriate drug concentrations to the wells (final DMSO conc. 1%) as indicated in the Results section.” for “μl/well.”
Cells were exposed continuously to various concentrations of drugs for 72 hours. GI50 values were determined as the concentrations at 50% growth inhibition from at least three experiments.

UOK257-FLCN^+ cells [7] = assay: Clonogenic cell survival assay in UOK257-FLCN^+ cells; type: cell-based, human; conditions: 72 hrs exposure
Excerpt: Colonies with over 30 cells were counted.

[8] = system: 786-O cells expressing wt VHL; assay: SRB growth inhibition in 786-O cells expressing wt VHL; type: cell-based; conditions: Homo sapiens, 786-0; SRB assay, 72 hours
Excerpt: as §1, with “786-O is a kidney cancer cell line that harbours an inactivating VHL gene mutation (c.311delG p.G104fs*55). All cell lines were cultured in DMEM with supplement of 10% foetal bovine serum except for FTC-133 cells which were incubated in medium with DMEM and Hens (1:1).” left out
as §3

UOK257-FLCN^+ cells [9] = assay: SRB growth inhibition assay in UOK257-FLCN^+ cells; type: cell-based, human
Excerpt: as §1
as §2, with “μl/well. After 20-24 h at 37° C., drugs were added at the appropriate drug concentrations to the wells (final DMSO conc. 1%) as indicated in the Results section.” for “μl/well.”
UOK-257 is the only RCC cell line that has been derived from a patient with BHD and harbours a germline FLCN frameshift mutation (c.1285dupC) (predicted, in the absence of nonsense mediated mRNA decay, to lead to premature protein truncation (p.His429ProfsX27) (Yang et al Cancer Genet Cytogenet, 2008 Jan. 15; 180(2):100-9). Both UOK257-FLCN^− and UOK257-FLCN^+ cells were examined for their sensitivities to growth inhibition induced by 15 compounds selected from the COMPARE analysis. Various concentrations of compounds were introduced into the cells 24 hrs after seeding, incubation was continued for 72 hours and growth inhibition was assessed using the suiphorhodamine B (SRB) assay. GI50 values, defined as the concentration of compounds required to inhibit growth by 50%, were then calculated. The ratio of GI50 value from UOK257-FLCN^+ and UOK257-FLCN^− were calculated and used as an indicator for the sensitivity to FLCN mutant cells.

[10] = system: FTC-133 cells with FLCN expressed at low levels; assay: SRB growth inhibition in FTC-133 cells, low FLCN expression; type: cell-based; conditions: Homo sapiens, SRB assay
Excerpt: as §1, with “786-O is a kidney cancer cell line that harbours an inactivating VHL gene mutation (c.311delG p.G104fs*55). All cell lines were cultured in DMEM with supplement of 10% foetal bovine serum except for FTC-133 cells which were incubated in medium with DMEM and Hens (1:1).” left out
as §3

Compound: CO[C@H](C(=O)[C@@H](O)[C@@H](C)O)C1Cc2cc3cc(OC4CC(OC5CC(O)C(O)C(C)O5)C(O)C(C)O4)c(C)c(O)c3c(O)c2C(=O)[C@H]1OC1CC(OC2CC(OC3CC(C)(O)C(O)C(C)O3)C(O)C(C)O2)C(O)C(C)O1 (stereo partly shown) [mithramycin, Mithramycin]
- GI50 (UOK257-FLCN^− cells [1]; 72 h, read-out: GI50 nM in UOK-FLCN^−): 64.2 ± 7.9 nM
- GI50 (UOK257-FLCN^− cells [1]; 72 h, read-out: GI50 in UOK257-FLCN^− cells, rapamycin combination experiment): 69 ± 10 nM
- GI50 (UOK257-FLCN^− cells [1]; read-out: GI50 in FLCN-null UOK257 cells): 64.2 ± 7.9 nM
- GI50 Ratio of UOK-FLCN^+/UOK-FLCN^− (UOK257-FLCN^− cells [1]; ratio>1 = more inhibitory to FLCN^− cells): 9.88
- GI50 [2]: 35.3 ± 7.3 nM
- GI50 ([2]; 72 hours): 35.3 ± 7.3 nM
- fold more cytotoxic to FLCN-null than FLCN-wild type UOK257 cells (clonogenic survival) (UOK257-FLCN^− cells [3]; 200 nM where stated): ~10 fold
- viable cells (clonogenic survival), UOK-257 cells without FLCN expression (UOK257-FLCN^− cells [3]; 200 nM, 72 hrs exposure): less than 8%
- cells survived (clonogenic), UOK257-FLCN^− cells (UOK257-FLCN^− cells [3]; 500 nM, 72 hrs exposure): less than 0.1%
- lengthening of the S and G2-M time (UOK257-FLCN^− cells [4]): 100%
- GI50 ([5]; FTC-133, 72 h, read-out: GI50 in FTC-133 cells, empty vector): 59.3 ± 8.9 nM
- GI50 ([5]; FTC-133, read-out: GI50 in FTC-133 cells, empty vector): 59.3 ± 8.9 nM
- differential sensitivity in FTC-133 cells with different levels of FLCN expression (in words) [5]: no apparent differential mithramycin sensitivity
- differential sensitivity in FTC-133 cells with different levels of FLCN expression (in words) ([5]; listed as Mithramycin): does not show genotypic selective growth inhibitory activity
- fold greater growth inhibitory sensitivity in 786-O mutant VHL versus wt VHL [6]: ~3 fold
- GI50 ([6]; Homo sapiens, 786-0, 72 h, read-out: GI50 in 786-O cells with mutant VHL): 117 ± 37 nM
- cell survival (clonogenic), UOK257-FLCN^+ cells (UOK257-FLCN^+ cells [7]; 200 nM): more than 85%
- cells able to form colonies, UOK257-FLCN^+ cells (UOK257-FLCN^+ cells [7]; 500 nM): more than 60%
- cells survived (clonogenic), UOK257-FLCN^+ cells (UOK257-FLCN^+ cells [7]; 5000 nM): more than 4%
- GI50 [8]: 299 ± 17 nM
- GI50 (UOK257-FLCN^+ cells [9]; 72 hours continuous exposure, mean ± SE (n), read-out: GI50 nM in UOK-FLCN^+): 634 ± 148 nM
- GI50 (UOK257-FLCN^+ cells [9]; Homo sapiens, 72 h, 72 hours continuous exposure, mean ± SE (n), read-out: GI50 nM in UOK-FLCN^+): 634 ± 148 nM
- GI50 (UOK257-FLCN^+ cells [9]; Homo sapiens, read-out: GI50 in FLCN-wt UOK257 cells): 634 ± 148 nM
- GI50 [10]: 38.7 ± 10.4 nM
- GI50 ([10]; 72 hours): 38.7 ± 10.4 nM
